# Assays:
# PARG = PARG (Homo sapiens, UniProt Q86W56); assay: Biochemical assay (PARG, TFMU-ADPr substrate); conditions: PARG, TFMU-ADPr substrate
# HCC1806 = assay: Cell viability assay (CellTiter-Glo); assay type: cell-based, Human; conditions: Homo sapiens, HCC1806, 168 h, HCC1806, 7 days, CellTiter-Glo; read-out: IC50 (nM) in cell viability assay
# Chain of PARG (Q86W56 whole entry): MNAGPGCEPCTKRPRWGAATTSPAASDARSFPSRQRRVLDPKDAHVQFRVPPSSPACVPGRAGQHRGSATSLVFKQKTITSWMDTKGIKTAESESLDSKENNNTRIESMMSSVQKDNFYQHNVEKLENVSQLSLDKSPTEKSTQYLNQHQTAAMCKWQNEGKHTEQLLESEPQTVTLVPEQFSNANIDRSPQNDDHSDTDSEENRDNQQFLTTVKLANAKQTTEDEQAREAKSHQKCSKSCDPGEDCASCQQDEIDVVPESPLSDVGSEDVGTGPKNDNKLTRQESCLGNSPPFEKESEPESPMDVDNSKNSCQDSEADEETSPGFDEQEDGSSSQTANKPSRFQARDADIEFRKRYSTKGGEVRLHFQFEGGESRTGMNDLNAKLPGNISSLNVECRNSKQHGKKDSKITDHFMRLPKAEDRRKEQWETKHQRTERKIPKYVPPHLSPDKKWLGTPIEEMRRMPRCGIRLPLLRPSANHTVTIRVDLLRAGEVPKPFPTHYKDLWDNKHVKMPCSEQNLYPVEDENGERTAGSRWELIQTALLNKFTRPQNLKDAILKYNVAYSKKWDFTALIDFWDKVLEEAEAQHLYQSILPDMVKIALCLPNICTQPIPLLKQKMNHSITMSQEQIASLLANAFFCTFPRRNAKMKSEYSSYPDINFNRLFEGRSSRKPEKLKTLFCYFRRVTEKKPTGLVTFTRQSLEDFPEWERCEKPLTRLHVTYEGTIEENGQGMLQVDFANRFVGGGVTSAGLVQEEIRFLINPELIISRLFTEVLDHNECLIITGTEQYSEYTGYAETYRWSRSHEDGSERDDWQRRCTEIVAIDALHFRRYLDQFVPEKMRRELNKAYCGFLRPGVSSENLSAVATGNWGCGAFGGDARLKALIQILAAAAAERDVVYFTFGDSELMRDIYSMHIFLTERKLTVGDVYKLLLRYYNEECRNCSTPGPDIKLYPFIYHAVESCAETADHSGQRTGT
SMILES,IC50 (PARG) [nM],IC50 (HCC1806) [nM]
"CC1(NS(=O)(=O)c2cc(N3CCN[C@@H](CO)C3)c3cnc(-c4nnc(C(F)F)s4)n3c2)COC1 [Example 178, (R)-3-(5-(difluoromethyl)-1,3,4-thiadiazol-2-yl)-8-(3-(hydroxymethyl)piperazin-1-yl)-N-(3-methyloxetan-3-yl)imidazo[1,5-a]pyridine-6-sulfonamide]",1.18,945
"C[C@@H]1CN(c2cc(S(=O)(=O)NC3(C)COC3)cn3c(-c4nnc(C(F)F)s4)ncc23)C[C@@H](C)N1 [Example 180, 3-(5-(difluoromethyl)-1,3,4-thiadiazol-2-yl)-8-((3R,5R)-3,5-dimethylpiperazin-1-yl)-N-(3-methyloxetan-3-yl)imidazo[1,5-a]pyridine-6-sulfonamide]",5.62,517
"C[C@H]1CN(c2cc(S(=O)(=O)NC3(C)COC3)cn3c(-c4nnc(C(F)F)s4)ncc23)CCN1 [Example 181, (S)-3-(5-(difluoromethyl)-1,3,4-thiadiazol-2-yl)-N-(3-methyloxetan-3-yl)-8-(3-methylpiperazin-1-yl)imidazo[1,5-a]pyridine-6-sulfonamide]",1.78,151
"C[C@H]1CN(c2cc(S(=O)(=O)NC3(C)COC3)cn3c(-c4nnc(C(F)F)s4)cnc23)C[C@H](C)N1 [Example 182, 3-(5-(difluoromethyl)-1,3,4-thiadiazol-2-yl)-8-((3S,5S)-3,5-dimethylpiperazin-1-yl)-N-(3-methyloxetan-3-yl)imidazo[1,2-a]pyridine-6-sulfonamide]",0.53,128
"[2H]C([2H])([2H])OC1(C(=O)N2CCN(c3cc(S(=O)(=O)NC4(C)COC4)cn4c(-c5nnc(C(F)(F)F)s5)ncc34)CC2)CC1 [Example 183, 8-(4-(1-(methoxy-d3)cyclopropane-1-carbonyl)piperazin-1-yl)-N-(3-methyloxetan-3-yl)-3-(5-(trifluoromethyl)-1,3,4-thiadiazol-2-yl)imidazo[1,5-a]pyridine-6-sulfonamide]",0.91,26.8
"C[C@H]1CN(c2cc(S(=O)(=O)NC3(C)COC3)cn3c(-c4nnc(C(F)(F)F)s4)ncc23)C[C@H](C)N1 [Example 184, 8-((3S,5S)-3,5-dimethylpiperazin-1-yl)-N-(3-methyloxetan-3-yl)-3-(5-(trifluoromethyl)-1,3,4-thiadiazol-2-yl)imidazo[1,5-a]pyridine-6-sulfonamide]",1.15,18
"CN(C)CCN(C)C(=O)N1CCN(c2cc(S(=O)(=O)NC3(C)COC3)cn3c(-c4nnc(C(F)(F)F)s4)ncc23)CC1 [Example 185, N-(2-(dimethylamino)ethyl)-N-methyl-4-(6-(N-(3-methyloxetan-3-yl)sulfamoyl)-3-(5-(trifluoromethyl)-1,3,4-thiadiazol-2-yl)imidazo[1,5-a]pyridin-8-yl)piperazine-1-carboxamide]",4.58,797
"CC1(NS(=O)(=O)c2cc(N3CCN4C(=O)CCC4C3)c3cnc(-c4nnc(C(F)(F)F)s4)n3c2)COC1 (stereo not shown) [Example 186, N-(3-methyloxetan-3-yl)-8-(6-oxohexahydropyrrolo[1,2-a]pyrazin-2(1H)-yl)-3-(5-(trifluoromethyl)-1,3,4-thiadiazol-2-yl)imidazo[1,5-a]pyridine-6-sulfonamide]",5.62,485
"CN(C)CCN(C)C(=O)N1CCN(c2cc(S(=O)(=O)NC3(C)COC3)cn3c(-c4nnc(C(F)F)s4)ncc23)CC1 [Example 187, 4-(3-(5-(difluoromethyl)-1,3,4-thiadiazol-2-yl)-6-(N-(3-methyloxetan-3-yl)sulfamoyl)imidazo[1,5-a]pyridin-8-yl)-N-(2-(dimethylamino)ethyl)-N-methylpiperazine-1-carboxamide]",3.37,874
"CN(C)CCN(C)C(=O)N1CCN(c2cc(S(=O)(=O)NC3(C)COC3)cn3c(-c4nnc(C(F)F)s4)nc(Cl)c23)CC1 [Example 188, 4-(1-chloro-3-(5-(difluoromethyl)-1,3,4-thiadiazol-2-yl)-6-(N-(3-methyloxetan-3-yl)sulfamoyl)imidazo[1,5-a]pyridin-8-yl)-N-(2-(dimethylamino)ethyl)-N-methylpiperazine-1-carboxamide]",0.71,85
"C[C@H]1CN(c2cc(S(=O)(=O)NC3(C)COC3)cn3c(-c4nnc(C(F)(F)F)s4)cnc23)C[C@H](C)N1 [Example 189, 8-((3S,5S)-3,5-dimethylpiperazin-1-yl)-N-(3-methyloxetan-3-yl)-3-(5-(trifluoromethyl)-1,3,4-thiadiazol-2-yl)imidazo[1,2-a]pyridine-6-sulfonamide]",3.55,112
"CC1(NS(=O)(=O)c2cc(N3CCN[C@H](CF)C3)c3cnc(-c4nnc(C(F)F)s4)n3c2)COC1 [Example 191, (S)-3-(5-(difluoromethyl)-1,3,4-thiadiazol-2-yl)-8-(3-(fluoromethyl)piperazin-1-yl)-N-(3-methyloxetan-3-yl)imidazo[1,5-a]pyridine-6-sulfonamide]",32,723
"COC1(C(=O)N2CCN(c3cc(S(=O)(=O)NC4(C#N)CC4)cn4c(-c5nnc(C(F)F)s5)ncc34)CC2)CC1 [Example 192, N-(1-cyanocyclopropyl)-3-(5-(difluoromethyl)-1,3,4-thiadiazol-2-yl)-8-(4-(1-methoxycyclopropane-1-carbonyl)piperazin-1-yl)imidazo[1,5-a]pyridine-6-sulfonamide]",0.83,30
"COC1(C(=O)N2CCN(c3cc(S(=O)(=O)NC4CC4)cn4c(-c5nnc(C(F)(F)F)s5)ncc34)CC2)CC1 [Example 194, N-cyclopropyl-8-(4-(1-methoxycyclopropane-1-carbonyl)piperazin-1-yl)-3-(5-(trifluoromethyl)-1,3,4-thiadiazol-2-yl)imidazo[1,5-a]pyridine-6-sulfonamide]",3.21,84.8
"COC1(C(=O)N2CCN(c3c(F)c(S(=O)(=O)NC4CC4)cn4c(-c5nnc(C(F)(F)F)s5)ncc34)CC2)CC1 [Example 195, N-cyclopropyl-7-fluoro-8-(4-(1-methoxycyclopropane-1-carbonyl)piperazin-1-yl)-3-(5-(trifluoromethyl)-1,3,4-thiadiazol-2-yl)imidazo[1,5-a]pyridine-6-sulfonamide]",5.62,666
"COC1(C(=O)N2CCN(c3cc(S(=O)(=O)NC4(C)CC4)cn4c(-c5nnc(C(F)F)s5)ncc34)CC2)CC1 [Example 196, 3-(5-(difluoromethyl)-1,3,4-thiadiazol-2-yl)-8-(4-(1-methoxycyclopropane-1-carbonyl)piperazin-1-yl)-N-(1-methylcyclopropyl)imidazo[1,5-a]pyridine-6-sulfonamide]",< 0.1,6.34
"COC1(C(=O)N2CCN(c3cc(S(=O)(=O)NC4(C)CC4)cn4c(-c5nnc(C(F)F)s5)ncc34)C[C@H]2C)CC1 [Example 197, (R)-3-(5-(difluoromethyl)-1,3,4-thiadiazol-2-yl)-8-(4-(1-methoxycyclopropane-1-carbonyl)-3-methylpiperazin-1-yl)-N-(1-methylcyclopropyl)imidazo[1,5-a]pyridine-6-sulfonamide]",0.19,6.58

# Source: patent US20260258035A1, “FIVE-MEMBERED AND SIX-MEMBERED NITROGEN-CONTAINING COMPOUND, AND INTERMEDIATE, PREPARATION METHOD AND USE THEREOF” (HANGZHOU SYNRX THERAPEUTICS BIOMEDICAL TECHNOLOGY CO., LTD., priority 2022, published 2026)
